Measurements reported in patent publication US20120225909A1, “INDAZOLE ANALOG” (priority 2009, published 2012).

Experiments:
Format in all cases: cell-based
[1] = target: T1, human α1A-adrenergic receptor (Homo sapiens, UniProt P35348); assay: Test Case 4-B: human α1A-adrenergic receptor agonist activity (Cerep cellular functional GPCR, alpha 1A); set-up: expressed in transfected cells; details: concentration 10 μM; for α1 receptor % of Control Agonist Response, Control; Epinephrine: epinephrine = 100%; for α1 receptor % of Control Agonist Response, Control; Norepinephrine: norepinephrine = 100%
T1 sequence (P35348 1-466): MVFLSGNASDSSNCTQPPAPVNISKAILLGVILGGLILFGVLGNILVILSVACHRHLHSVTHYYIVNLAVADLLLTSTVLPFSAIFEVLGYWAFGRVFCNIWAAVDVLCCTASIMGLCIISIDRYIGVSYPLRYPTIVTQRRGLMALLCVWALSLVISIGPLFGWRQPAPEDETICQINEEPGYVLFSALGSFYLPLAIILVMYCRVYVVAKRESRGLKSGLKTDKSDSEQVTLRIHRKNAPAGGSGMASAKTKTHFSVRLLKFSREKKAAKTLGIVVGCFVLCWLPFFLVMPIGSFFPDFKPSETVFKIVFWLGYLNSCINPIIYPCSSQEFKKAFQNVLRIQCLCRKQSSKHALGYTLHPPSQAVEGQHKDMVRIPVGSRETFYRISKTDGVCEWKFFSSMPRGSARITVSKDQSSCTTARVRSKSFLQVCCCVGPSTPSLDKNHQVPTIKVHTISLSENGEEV
From the text: Measurement of Human α1A-Adrenergic Receptor Agonist Activity
The human α1A-adrenergic receptor agonist activity] can be measured by […] Functional GPCR·Gs, alpha 1A (Ref. 722-36a) listed on p. 52 of the Cerep 2008 CATALOG IN VITRO PHARMACOLOGY & ADME-TOX.

[2] = target: T2, human β1-adrenergic receptor (Homo sapiens, UniProt P08588); assay: Test Case 2-C: human β1-adrenergic receptor agonist activity (Cerep cellular functional GPCR, beta 1); details: concentration 10 μM, isoproterenol = 100%
T2 construct: expressed in transfected cells; host or cells: CHO (Chinese hamster ovary) cells, pcDNA3
From the text: Measurement of Human β1-Adrenergic Receptor Agonist Activity

[3] = target: T3, human β2-adrenergic receptor (Homo sapiens, UniProt P07550); assay: Test Case 3-C: human β2-adrenergic receptor agonist activity (Cerep cellular functional GPCR, beta 2); details: concentration 10 μM, isoproterenol = 100%
T3 construct: expressed in transfected cells; host or cells: CHO (Chinese hamster ovary) cells, pcDNA3
From the text: Measurement of Human β2-Adrenergic Receptor Agonist Activity

T2 sequence (P08588 whole entry): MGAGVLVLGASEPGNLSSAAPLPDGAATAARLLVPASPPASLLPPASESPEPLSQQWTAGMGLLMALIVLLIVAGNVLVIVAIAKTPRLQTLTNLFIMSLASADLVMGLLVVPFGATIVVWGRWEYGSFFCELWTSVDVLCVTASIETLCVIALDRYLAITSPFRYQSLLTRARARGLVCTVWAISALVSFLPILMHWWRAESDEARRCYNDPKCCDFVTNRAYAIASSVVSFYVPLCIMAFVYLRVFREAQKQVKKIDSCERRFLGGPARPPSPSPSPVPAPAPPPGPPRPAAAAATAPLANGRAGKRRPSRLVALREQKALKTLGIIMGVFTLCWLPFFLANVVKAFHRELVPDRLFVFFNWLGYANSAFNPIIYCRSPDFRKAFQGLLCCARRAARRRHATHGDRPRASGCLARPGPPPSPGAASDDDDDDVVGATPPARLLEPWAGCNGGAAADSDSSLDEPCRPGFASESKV

Compound	α1 receptor % of Control Agonist Response, Control; Epinephrine [1] [%]	α1 receptor % of Control Agonist Response, Control; Norepinephrine [1] [%]	β1 receptor % of Control Agonist Response [2] [%]	β2 receptor % of Control Agonist Response [3] [%]	α1 receptor % of Control Agonist Response, Control; Epinephrine ([1]; 10 µM) [%]	α1 receptor % of Control Agonist Response, Control; Norepinephrine ([1]; 10 µM) [%]	β2 receptor % of Control Agonist Response ([3]; 10 µM) [%]
(R)-N-(3-(2-(2-(3- ethylindazol-6- yloxy)ethylamino)-1- hydroxyethyl)phenyl)- ? -methyli ? zole-4- sulfonamide [ex134]	7.0	6.0	7.0	2.0	–	–	–
CCc1n[nH]c2cc(OCCNC[C@H](O)c3cccc(NS(=O)(=O)c4cc(N)ccc4F)c3)ccc12 [ex148, (R)-5-amino-N-(3-(2-(2-(3-ethylindazol-6-yloxy)-ethylamino)-1-hydroxyethyl)phenyl)-2-fluorobenzene-sulfonamide]	−0.2	−0.2	15	0.8	–	–	–
Cc1n[nH]c2cc(OCCNC[C@H](O)c3cccc(NS(=O)(=O)c4cc(F)c(F)cc4F)c3)ccc12 [ex85, (R)-2,4,5-trifluoro-N-(3-(1-hydroxy-2-(2-(3-methylindazol-6-yloxy)ethylamino)ethyl)phenyl) benzenesulfonamide]	0.1	0.1	30	1.0	–	–	–
O=S(=O)(Nc1cccc([C@@H](O)CNCCOc2ccc3c(C(F)(F)F)n[nH]c3c2)c1)c1cn[nH]c1 [ex198, (R)-N-(3-(1-hydroxy-2-(2-(3-(trifluoromethyl)-indazol-6-yloxy)ethylamino)ethyl)phenyl)-pyrazole-4-sulfonamide]	19	17	3.5	−0.5	–	–	–
Cc1n[nH]c2cc(OCCNC[C@H](O)c3cccc(NS(=O)(=O)c4ccc(F)c(N)c4)c3)ccc12 [ex58, (R)-3-amino-4-fluoro-N-(3-(1-hydroxy-2-(2-(3-methylindazol-6-yloxy)ethylamino)ethyl)phenyl) benzenesulfonamide]	0.6	0.5	18	1.8	–	–	–
O=S(=O)(Nc1cc([C@@H](O)CNCCOc2ccc3c(C(F)(F)F)n[nH]c3c2)ccc1Cl)C1CC1 [ex199, (R)-N-(2-chloro-5-(1-hydroxy-2-(2-(3-(tri-fluoromethyl)-indazol-6-yloxy)ethylamino)-ethyl)phenyl)-cyclo-propanesulfonamide]	17	15	8.0	8.8	–	–	–
COc1n[nH]c2cc(OCCNC[C@H](O)c3cccc(NS(=O)(=O)c4cn[nH]c4)c3)ccc12 [ex23, (R)-N-( ? -(1-hydroxy-2-(2-(3-methoxyindazol-6-yloxy)ethylamino)ethyl)phenyl)pyrazole-4-sulfonamide]	32	27	2.1	0.5	–	–	–
O=S(=O)(Nc1cccc([C@@H](O)CNCCOc2ccc3c(C(F)(F)F)n[nH]c3c2)c1)c1cccnc1 [ex186, (R)-N-(3-(1-hydroxy-2-(2-(3-(trifluoromethyl)-indazol-6-yloxy)ethylamino)ethyl)phenyl)pyridine-3-sulfonamide]	0.6	0.5	7.2	1.9	–	–	–
O=S(=O)(Nc1cccc([C@@H](O)CNCCOc2ccc3c(Cl)n[nH]c3c2)c1)c1ccsc1 [ex157, (R)-N-(3-(2-(2-(3-chloroindazol-6-yloxy)ethylamino)-1-hydroxyethyl)phenyl)thiophene-3-sulfonamide]	8.1	7.0	7.0	3.2	–	–	–
O=S(=O)(Nc1cccc([C@@H](O)CNCCOc2ccc3c(Cl)n[nH]c3c2)c1)c1cn[nH]c1 [ex167, (R)-N-(3-(2-(2-(3-chloroindazol-6-yloxy)ethylamino)-1-hydroxyethyl)phenyl)pyrazole-4-sulfonamide]	26	22	6.4	0.3	–	–	–
Nc1ccc(F)c(S(=O)(=O)Nc2cccc([C@@H](O)CNCCOc3ccc4c(OC(F)F)n[nH]c4c3)c2)c1 [ex106]	−0.2	−0.2	11	2.1	–	–	–
Nc1ccc(F)c(S(=O)(=O)Nc2cccc([C@@H](O)CNCCOc3ccc4c(C(F)(F)F)n[nH]c4c3)c2)c1 [ex185, (R)-5-amimo-2-fluoro-N-(3-(1-hydroxy-2-(2-(3-(trifluoro-methyl)-indazol-6-yloxy)ethylamino)ethyl)phenyl)ben-zenesulfonamide]	6.4	6	13	0.3	–	–	–
O=S(=O)(Nc1cccc([C@@H](O)CNCCOc2ccc3c(Cl)n[nH]c3c2)c1)c1cccnc1 [ex156, (R)-N-(3-(2-(2-(3-chloroindazol-6-yloxy)ethylamino)-1-hydroxyethyl)phenyl)pyridine-3-sulfonamide]	–	–	12	–	3.9	3.4	3.5
O=S(=O)(Nc1cccc([C@@H](O)CNCCOc2ccc3c(Cl)n[nH]c3c2)c1)c1cccnc1 [ex155, (R)-N-(3-(2-(2-(3-chloroindazol-6-yloxy)ethylamino)-1-hydroxyethyl)phenyl)pyridine-3-sulfonamide]	–	–	12	–	0	0	2.2
CCc1n[nH]c2cc(OCCNC[C@H](O)c3cccc(NS(=O)(=O)c4ccccc4F)c3)ccc12 [ex128, (R)-N-(3-(2-(2-(3-ethylindazol-6-yloxy)ethylamino)-1-hydroxyethyl)phenyl)-2-fluorobenzene-sulfonamide]	16	14	10	0.3	–	–	–
